Data taken from ChEMBL document CHEMBL5338793, “Discovery of Pyrimidinediamine Derivatives as Potent Methuosis Inducers for the Treatment of Triple-Negative Breast Cancer” (J Med Chem, 2023).
pIC50: −log10 of the molar value. Calls of active or inactive are those of the source.

How the values were obtained:
[1] = Toxicity in mouse xenografted with human HCC1806 cells assessed as body weight change at 2.5 to 5 mg/kg, ip administered every 2 days for 15 days; type: organism-based; settings: in vivo, 360 h, dose 2.5-5 mg/kg, time 15 day
MDA-MB-468 [2] = assay: Upregulation of Rab7 level in human MDA-MB-468 cells at 1.5 uM incubated for 24 hrs by immunofluorescence microscopy; type: functional, cell-based
HCC1806 [3] = assay: Antiproliferative activity against human HCC1806 cells assessed as inhibition of cell proliferation at 1 uM pretreated with Z-VAD-FMK followed by compound addition measured after 24 hrs by SRB assay; type: functional, cell-based
HCC1806 [4] = assay: Induction of morphological changes in human HCC1806 cells assessed as intracellular vacuolization at 0.5 uM incubated for 24 hrs by microscopic analysis; type: functional, cell-based
HCC1806 [5] = assay: Antiproliferative activity against human HCC1806 cells assessed as inhibition of cell proliferation at 1 uM incubated for 24 hrs by SRB assay relative to control; type: functional
MDA-MB-468 [6] = assay: Induction of morphological changes in human MDA-MB-468 cells assessed as intracellular vacuolization at 1.5 uM pretreated with Baf-A1 followed by compound addition measured after 24 hrs by microscopic analysis; type: functional, cell-based
HCC1806 [7] = assay: Antiproliferative activity against human HCC1806 cells assessed as inhibition of cell proliferation incubated for 24 hrs by SRB assay; type: functional, cell-based; settings: HCC1806, 24 h
MDA-MB-468 [8] = assay: Antiproliferative activity against human MDA-MB-468 cells assessed as inhibition of cell proliferation incubated for 24 hrs by SRB assay; type: functional, cell-based; settings: MDA-MB-468, 24 h
MDA-MB-468 [9] = assay: Antiproliferative activity against human MDA-MB-468 cells assessed as inhibition of cell proliferation at 1 uM measured after 24 hrs in presence of 3-MA by SRB assay; type: functional, cell-based
MDA-MB-468 [10] = assay: Antiproliferative activity against human MDA-MB-468 cells assessed as inhibition of cell proliferation at 1 uM pretreated with Z-VAD-FMK followed by compound addition measured after 24 hrs by SRB assay; type: functional, cell-based
HCC1806 [11] = assay: Upregulation of p62 level in human HCC1806 cells incubated for 24 hrs by Western blot analysis; type: functional, cell-based; settings: dose <= 1.5 µM
HCC1806 [12] = assay: Upregulation of Rab7 level in human HCC1806 cells at 1.5 uM incubated for 24 hrs by immunofluorescence microscopy; type: functional, cell-based
[13] = Toxicity in mouse xenografted with human HCC1806 cells assessed as effect on CR level at 2.5 to 5 mg/kg, ip administered every 2 days for 15 days; type: organism-based; settings: in vivo, 360 h, dose 2.5-5 mg/kg, time 15 day
[14] = Toxicity in mouse xenografted with human HCC1806 cells assessed as effect on AST level at 2.5 to 5 mg/kg, ip administered every 2 days for 15 days; type: organism-based; settings: in vivo, 360 h, dose 2.5-5 mg/kg, time 15 day
184B5 [15] = assay: Cytotoxicity against human 184B5 cells assessed as reduction in cell viability at 2 uM incubated for 24 hrs by SRB assay; type: toxicity, cell-based; settings: 184b5, 24 h
[16] = Toxicity in mouse xenografted with human HCC1806 cells assessed as drug tolerance at 2.5 to 5 mg/kg, ip administered every 2 days for 15 days; type: organism-based; settings: in vivo, 360 h, dose 2.5-5 mg/kg, time 15 day
MDA-MB-468 [17] = assay: Upregulation of Lamp1 level in human MDA-MB-468 cells incubated for 24 hrs by Western blot analysis; type: functional, cell-based; settings: dose <= 1.5 µM
HCC1806 [18] = assay: Induction of morphological changes in human HCC1806 cells assessed as intracellular vacuolization at 1.5 uM measured after 12 to 24 hrs by microscopic analysis; type: functional, cell-based; settings: time 12-24 hrs
HCC1806 [19] = assay: Antiproliferative activity against human HCC1806 cells assessed as inhibition of cell proliferation at 1 uM measured after 24 hrs in presence of 3-MA by SRB assay; type: functional, cell-based
HCC1806 [20] = assay: Upregulation of Lamp1 level in human HCC1806 cells at 1.5 uM incubated for 24 hrs by immunofluorescence microscopy; type: functional, cell-based
HCC1806 [21] = assay: Antiproliferative activity against human HCC1806 cells assessed as inhibition of cell proliferation at 1.5 uM pretreated with Baf-A1 followed by compound addition measured after 24 hrs by SRB assay; type: functional, cell-based
MDA-MB-468 [22] = assay: Induction of macropinocytosis in human MDA-MB-468 cells at 1.5 uM incubated for 24 hrs by LY staining based live cell imaging analysis; type: functional
HCC1806 [23] = assay: Induction of macropinocytosis in human HCC1806 cells at 1.5 uM incubated for 24 hrs by LY staining based live cell imaging analysis; type: functional
HCC1806 [24] = assay: Antiproliferative activity against human HCC1806 cells assessed as inhibition of cell proliferation at 2 uM incubated for 24 hrs by SRB assay relative to control; type: functional
[25] = Toxicity in mouse xenografted with human HCC1806 cells assessed as effect on ALT level at 2.5 to 5 mg/kg, ip administered every 2 days for 15 days; type: organism-based; settings: in vivo, 360 h, dose 2.5-5 mg/kg, time 15 day
MDA-MB-468 [26] = assay: Upregulation of Rab7 level in human […] cells incubated for 24 hrs by Western blot analysis; type: functional, cell-based; settings: dose <= 1.5 µM
184B5 [27] = assay: Induction of morphological changes in human 184B5 cells assessed as intracellular vacuolization upto 2 uM incubated for 24 hrs by microscopic analysis; type: toxicity, cell-based; settings: 184b5, 24 h
HCC1806 [28] = assay: Induction of morphological changes in human HCC1806 cells assessed as intracellular vacuolization at 1 uM pretreated with Z-VAD-FMK followed by compound addition measured after 24 hrs by microscopic analysis; type: functional, cell-based
HCC1806 [29] = assay: Induction of morphological changes in human HCC1806 cells assessed as intracellular vacuolization incubated for 24 hrs by microscopic analysis; type: functional, cell-based; settings: dose 0.5-1.5 µM
HCC1806 [30] = assay: Induction of morphological changes in human HCC1806 cells assessed as rate of intracellular vacuolization at 1 uM incubated for 24 hrs by microscopic analysis relative to control; type: functional
MDA-MB-468 [31] = assay: Upregulation of Lamp1 level in human MDA-MB-468 cells at 1.5 uM incubated for 24 hrs by immunofluorescence microscopy; type: functional, cell-based
HCC1806 [32] = assay: Induction of morphological changes in human HCC1806 cells assessed as intracellular vacuolization at 1.5 uM pretreated with Baf-A1 followed by compound addition measured after 24 hrs by microscopic analysis; type: functional, cell-based
HCC1806 [33] = assay: Upregulation of Lamp1 level in human HCC1806 cells incubated for 24 hrs by Western blot analysis; type: functional, cell-based; settings: dose <= 1.5 µM
MDA-MB-468 [34] = assay: Antiproliferative activity against human MDA-MB-468 cells assessed as inhibition of cell proliferation at 1.5 uM pretreated with Baf-A1 followed by compound addition measured after 24 hrs by SRB assay; type: functional, cell-based
HCC1806 [35] = assay: Antitumor activity against human HCC1806 cells xenografted in mouse assessed as tumor growth inhibition at 2.5 to 5 mg/kg, ip administered every 2 days for 15 days; type: functional, organism-based; settings: dose 2.5-5 mg/kg, time 15.0 day
MDA-MB-468 [36] = assay: Induction of morphological changes in human MDA-MB-468 cells assessed as intracellular vacuolization incubated for 24 hrs by microscopic analysis; type: functional, cell-based; settings: dose 0.5-1.5 µM
HCC1806 [37] = assay: Induction of morphological changes in human HCC1806 cells assessed as intracellular vacuolization at 1 uM measured after 24 hrs in presence of 3-MA by microscopic analysis; type: functional, cell-based
HCC1806 [38] = assay: Upregulation of Rab7 level in human HCC1806 cells incubated for 24 hrs by Western blot analysis; type: functional, cell-based; settings: dose <= 1.5 µM
MDA-MB-468 [39] = assay: Induction of morphological changes in human MDA-MB-468 cells assessed as intracellular vacuolization at 1 uM pretreated with Z-VAD-FMK followed by compound addition measured after 24 hrs by microscopic analysis; type: functional, cell-based
HCC1937 = assay: Antiproliferative activity against human HCC1937 cells assessed as inhibition of cell proliferation incubated for 24 hrs by SRB assay; type: functional, cell-based; settings: HCC1937, 24 h
MDA-MB-468 [40] = assay: Induction of morphological changes in human MDA-MB-468 cells assessed as intracellular vacuolization at 1 uM measured after 24 hrs in presence of 3-MA by microscopic analysis; type: functional, cell-based
MDA-MB-468 [41] = assay: Induction of morphological changes in human MDA-MB-468 cells assessed as intracellular vacuolization at 1 uM incubated for 24 hrs by microscopic analysis; type: functional, cell-based
HCC1806 [42] = assay: Upregulation of LC3-II level in human HCC1806 cells incubated for 24 hrs by Western blot analysis; type: functional, cell-based; settings: dose <= 1.5 µM
MDA-MB-468 [43] = assay: Induction of morphological changes in human MDA-MB-468 cells assessed as intracellular vacuolization at 0.5 uM incubated for 24 hrs by microscopic analysis; type: functional, cell-based

COc1cc(Nc2nc(N3CCNCC3)ncc2SC)ccc1NC(=O)c1cccc(Br)n1
5.99: pIC50 (HCC1937)
6.15: pIC50 (HCC1806 [7])
Non-Toxic: Activity [1] | Activity [13] | Activity [14] | Activity [16] | Activity [25] | Activity (184B5 [27])
6.04: pIC50 (MDA-MB-468 [8])
inactive: Activity (MDA-MB-468 [6]) | Activity (HCC1806 [21]) | Activity (HCC1806 [32]) | Activity (MDA-MB-468 [34])
99.5%: inhibition at 1 µM (HCC1806 [5])
Toxic: Activity (184B5 [15])
7.07%: inhibition at 2 µM (HCC1806 [24])
active: Activity (MDA-MB-468 [2]) | Activity (HCC1806 [3]) | Activity (HCC1806 [4]) | Activity (MDA-MB-468 [9]) | Activity (MDA-MB-468 [10]) | Activity (HCC1806 [11]) Dose-Dependent Effect | Activity (HCC1806 [12]) | Activity (MDA-MB-468 [17]) Dose-Dependent Effect | Activity (HCC1806 [18]) | Activity (HCC1806 [19]) | Activity (HCC1806 [20]) | Activity (MDA-MB-468 [22]) | Activity (HCC1806 [23]) | Activity (MDA-MB-468 [26]) Dose-Dependent Effect | Activity (HCC1806 [28]) | Activity (HCC1806 [29]) Dose-Dependent Effect | Activity (MDA-MB-468 [31]) | Activity (HCC1806 [33]) Dose-Dependent Effect | Activity (HCC1806 [35]) | Activity (MDA-MB-468 [36]) Dose-Dependent Effect | Activity (HCC1806 [37]) | Activity (HCC1806 [38]) Dose-Dependent Effect | Activity (MDA-MB-468 [39]) | Activity (MDA-MB-468 [40]) | Activity (MDA-MB-468 [41]) | Activity (HCC1806 [42]) Dose-Dependent Effect | Activity (MDA-MB-468 [43])
78.3%: Activity (HCC1806 [30])
